US12240844B2 (Voronoi, Inc., priority 2019, dated 2025)

Tests used:
[1] = molecular target: LRRK2 (Homo sapiens, UniProt Q5S007); test: LRRK2 enzyme inhibition, ADP-Glo kinase assay; type: biochemical; parameters: purchased Invitrogen PR8604B
How it was run: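 Purified human LRRK2 (25 ng) in 40 mM Tris-HCl pH7.4, 20 mM MgCl2, 0.5 mg/ml BSA, 50 μM DTT with 10 μM ATP and substrate ([…]), 2 h at 25° C. Final compound 50 to 0.000001024 μM, 12-point dilution. ADP-Glo luminescence vs solvent control; IC50 (nM).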

[2] = molecular target: LRRK2 (G2019S) (Homo sapiens, UniProt Q5S007, G2019S); test: LRRK2 G2019S enzyme inhibition, ADP-Glo kinase assay; type: biochemical; parameters: purchased SignalChem L10-12GG
LRRK2 (G2019S), sequence (Q5S007 970-2527 G2019S limits assumed): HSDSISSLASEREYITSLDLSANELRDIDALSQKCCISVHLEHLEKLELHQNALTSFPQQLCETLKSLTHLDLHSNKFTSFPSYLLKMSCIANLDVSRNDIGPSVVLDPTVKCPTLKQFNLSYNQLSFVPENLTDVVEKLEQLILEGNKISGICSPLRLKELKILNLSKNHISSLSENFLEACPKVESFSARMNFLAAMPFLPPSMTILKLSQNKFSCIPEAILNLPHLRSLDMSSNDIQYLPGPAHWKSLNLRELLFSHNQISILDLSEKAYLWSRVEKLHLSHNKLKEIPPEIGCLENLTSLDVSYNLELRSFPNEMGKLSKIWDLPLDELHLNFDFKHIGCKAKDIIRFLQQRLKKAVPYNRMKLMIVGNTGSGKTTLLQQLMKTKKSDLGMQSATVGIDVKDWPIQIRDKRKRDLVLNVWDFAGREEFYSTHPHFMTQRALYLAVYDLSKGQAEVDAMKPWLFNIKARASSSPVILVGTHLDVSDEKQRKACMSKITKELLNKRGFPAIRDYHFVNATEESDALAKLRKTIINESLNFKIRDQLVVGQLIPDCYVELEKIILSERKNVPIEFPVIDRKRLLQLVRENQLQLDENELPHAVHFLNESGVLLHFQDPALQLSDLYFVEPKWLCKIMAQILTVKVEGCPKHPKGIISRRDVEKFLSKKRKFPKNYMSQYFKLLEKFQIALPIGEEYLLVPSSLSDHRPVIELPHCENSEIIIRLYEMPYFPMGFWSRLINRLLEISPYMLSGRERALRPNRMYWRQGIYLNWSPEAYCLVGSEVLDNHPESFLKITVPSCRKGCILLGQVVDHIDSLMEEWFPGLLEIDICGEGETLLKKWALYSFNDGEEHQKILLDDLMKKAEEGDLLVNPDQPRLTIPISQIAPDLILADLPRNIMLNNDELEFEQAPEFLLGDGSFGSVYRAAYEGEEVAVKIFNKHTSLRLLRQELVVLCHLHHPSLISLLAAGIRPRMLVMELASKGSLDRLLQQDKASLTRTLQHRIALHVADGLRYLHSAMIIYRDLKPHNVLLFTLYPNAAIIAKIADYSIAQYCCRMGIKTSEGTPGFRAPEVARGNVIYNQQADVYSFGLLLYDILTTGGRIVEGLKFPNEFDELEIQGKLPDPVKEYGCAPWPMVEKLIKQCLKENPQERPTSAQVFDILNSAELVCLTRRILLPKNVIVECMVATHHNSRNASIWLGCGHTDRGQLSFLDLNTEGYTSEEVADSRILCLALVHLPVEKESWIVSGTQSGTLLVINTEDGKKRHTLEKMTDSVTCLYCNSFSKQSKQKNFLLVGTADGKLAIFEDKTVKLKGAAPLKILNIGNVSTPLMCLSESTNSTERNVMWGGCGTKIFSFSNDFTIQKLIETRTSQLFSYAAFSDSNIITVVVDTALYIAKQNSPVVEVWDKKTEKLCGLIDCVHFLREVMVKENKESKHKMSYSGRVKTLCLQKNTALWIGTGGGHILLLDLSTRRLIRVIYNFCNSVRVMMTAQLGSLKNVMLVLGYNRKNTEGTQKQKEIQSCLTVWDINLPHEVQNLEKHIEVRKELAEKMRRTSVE
How it was run: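 Purified human LRRK2 G2019S (16 ng) with 25 μM ATP and 0.2 μg substrate, 2 h at 25° C in 40 mM Tris-HCl pH 7.4, 20 mM MgCl2, 0.5 mg/ml BSA, 50 μM DTT; compound at 12 final concentrations from 50 μM downward. ADP-Glo luminescence versus solvent control gave IC50 (nM).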

LRRK2, sequence (Q5S007 970-2527 limits assumed): as the sequence (Q5S007 970-2527 G2019S limits assumed) above, with S1050G counted along it

SMILES	IC50 [1] [nM]	IC50 [2] [nM]
COc1cc(S(=O)(=O)N2CCC(N3CCOCC3)CC2)ccc1Nc1cc(NCCS(C)(=O)=O)c2c(C(F)(F)F)c[nH]c2n1 [Example 194, N^6-(2-methoxy-4-((4-morpholinopiperidin-1-yl)sulfonyl)phenyl)-N^4-(2-(methylsulfonyl)ethyl)-3-(trifluoromethyl)-1H-pyrrolo[2,3-b]pyridine-4,6-diamine]	< 100	< 100
CNc1cc(Nc2ccc(S(=O)(=O)N3CCC(N4C[C@H]5C[C@@H]4CO5)CC3)cc2OC)nc2[nH]cc(C(F)(F)F)c12 [Example 243, N^6-(4-((4-((1R,4R)-2-oxa-5-azabicyclo[2.2.1]heptan-5-yl)piperidin-1-yl)sulfonyl)-2-methoxyphenyl)-N^4-methyl-3-(trifluoromethyl)-1H-pyrrolo[2,3-b]pyridine-4,6-diamine]	< 100	< 100
CCNc1cc(Nc2ccc(P3(=O)CCN(C(C)=O)CC3)cc2OC)nc2[nH]cc(C(F)(F)F)c12 [Example 42, 1-(4-(4-((4-(ethylamino)-3-(trifluoromethyl)-1H-pyrrolo[2,3-b]pyridin-6-yl)amino)-3-methoxyphenyl)-4-oxido-1,4-azaphosphinan-1-yl)ethan-1-one]	< 100	101 to 300
COc1cc(S(=O)(=O)N2CCC(N3CCOCC3)CC2)ccc1Nc1cc(C2CC2)c2c(C#N)c[nH]c2n1 [Example 228, 4-cyclopropyl-6-((2-methoxy-4-((4-morpholinopiperidin-1-yl)sulfonyl)phenyl)amino)-1H-pyrrolo[2,3-b]pyridine-3-carbonitrile]	< 100	< 100
CCNc1cc(Nc2ccc(C(=O)N3CCC(N4CCOCC4)CC3)c3c2OCO3)nc2[nH]cc(C(F)(F)F)c12 [Example 37, (7-((4-(ethylamino)-3-(trifluoromethyl)-1H-pyrrolo[2,3-b]pyridin-6-yl)amino)benzo[d][1,3]dioxol-4-yl)(4-morpholinopiperidin-1-yl)methanone]	< 100	< 100
CNc1cc(Nc2ccc(C(=O)N3CCC(N4C[C@@H]5C[C@H]4CO5)CC3)c3c2OCC3)nc2[nH]cc(C(F)(F)F)c12 [Example 241, (4-((1S,4S)-2-oxa-5-azabicyclo[2.2.1]heptan-5-yl)piperidin-1-yl)(7-((4-(methylamino)-3-(trifluoromethyl)-1H-pyrrolo[2,3-b]pyridin-6-yl)amino)-2,3-dihydrobenzofuran-4-yl)methanone]	< 100	< 100
COc1cc(P2(=O)CCN(C(C)=O)CC2)ccc1Nc1cc(C2CC2)c2c(C(F)(F)F)c[nH]c2n1 [Example 48, 1-(4-(4-((4-cyclopropyl-3-(trifluoromethyl)-1H-pyrrolo[2,3-b]pyridin-6-yl)amino)-3-methoxyphenyl)-4-oxido-1,4-azaphosphinan-1-yl)ethan-1-one]	301 to 1000	301 to 1000
CNc1cc(Nc2ccc(C(=O)N3CC[C@@H](N4CCOCC4)C3)c3c2OCC3)nc2[nH]cc(C(F)(F)F)c12 [Example 214, (R)-(7-((4-(methylamino)-3-(trifluoromethyl)-1H-pyrrolo[2,3-b]pyridin-6-yl)amino)-2,3-dihydrobenzofuran-4-yl)(3-morpholinopyrrolidin-1-yl)methanone]	< 100	< 100
COCCNc1cc(Nc2ccc(C(=O)N3CCC(N4CCOCC4)CC3)c3c2OCC3)nc2[nH]cc(C(F)(F)F)c12 [Example 55, (7-((4-((2-methoxyethyl)amino)-3-(trifluoromethyl)-1H-pyrrolo[2,3-b]pyridin-6-yl)amino)-2,3-dihydrobenzofuran-4-yl)(4-morpholinopiperidin-1-yl)methanone]	< 100	< 100
COc1cc(S(=O)(=O)N2CCOCC2)ccc1Nc1cc(C2CC2)c2c(C(F)(F)F)c[nH]c2n1 [Example 222, 4-cyclopropyl-N-(2-methoxy-4-(morpholinosulfonyl)phenyl)-3-(trifluoromethyl)-1H-pyrrolo[2,3-b]pyridin-6-amine]	301 to 1000	301 to 1000
CNc1cc(Nc2ccc(P3(=O)CCN(C4CC4)CC3)cc2OC)nc2[nH]cc(C(F)(F)F)c12 [Example 205, 1-cyclopropyl-4-(3-methoxy-4-((4-(methylamino)-3-(trifluoromethyl)-1H-pyrrolo[2,3-b]pyridin-6-yl)amino)phenyl)-1,4-azaphosphinane 4-oxide]	101 to 300	101 to 300
CCNc1cc(Nc2ccc(C(=O)N3CCC(N4C[C@@H]5C[C@H]4CO5)CC3)c3c2OCC3)nc2[nH]cc(C(F)(F)F)c12 [Example 105, (4-((1S,4S)-2-oxa-5-azabicyclo[2.2.1]heptan-5-yl)piperidin-1-yl)(7-((4-(ethylamino)-3-(trifluoromethyl)-1H-pyrrolo[2,3-b]pyridin-6-yl)amino)-2,3-dihydrobenzofuran-4-yl)methanone]	< 100	< 100
COc1cc(S(=O)(=O)N2CCOCC2)ccc1Nc1cc(C2CC2)c2c(C#N)c[nH]c2n1 [Example 227, 4-cyclopropyl-6-((2-methoxy-4-(morpholinosulfonyl)phenyl)amino)-1H-pyrrolo[2,3-b]pyridine-3-carbonitrile]	< 100	101 to 300
CNc1cc(Nc2ccc(C(=O)N3CCC(N4CCOCC4)CC3)c3c2OCCO3)nc2[nH]cc(C(F)(F)F)c12 [Example 160, (8-((4-(methylamino)-3-(trifluoromethyl)-1H-pyrrolo[2,3-b]pyridin-6-yl)amino)-2,3-dihydrobenzo [b] [1,4]dioxin-5-yl)(4-morpholinopiperidin-1-yl)methanone]	< 100	< 100
N#Cc1c[nH]c2nc(Nc3ccc(C(=O)N4CCOCC4)c4c3OCCO4)cc(C3CC3)c12 [Example 225, 4-cyclopropyl-6-((8-(morpholine-4-carbonyl)-2,3-dihydrobenzo[b] [1,4]dioxin-5-yl)amino)-1H-pyrrolo[2,3-b]pyridine-3-carbonitrile]	< 100	< 100
O=C(c1ccc(Nc2cc(C3CC3)c3c(C(F)(F)F)c[nH]c3n2)c2c1CCO2)N1CCOCC1 [Example 91, (7-((4-cyclopropyl-3-(trifluoromethyl)-1H-pyrrolo[2,3-b]pyridin-6-yl)amino)-2,3-dihydrobenzofuran-4-yl)(morpholino) methanone]	301 to 1000	301 to 1000
